Measured values as given in US6593342B1, “Pharmaceutical compositions comprising 2-quinolones” (Laboratoire L. Lafon, priority 1998, dated 2003).

Assays:
Format in all cases: cell-based
[1] = tested on: PC-3; assay: MTT test, PC-3; details: Homo sapiens, 10^−5 M, 72 hours, control = 100%, mean ± SEM, read-out: average optical density (MTT), percentage relative to control
Method: (§1) The influence of the compounds of formulae (I) and (Ia) on non-clonogenic cells was evaluated with the aid of the MTT calorimetric test.
(§2) The principle of the MTT test is based on the mitochondrial reduction, by the metabolically active live cells, of the yellow-colored product MTT (3-(4,5-dimethylthiazol-2-yl)-2,5-diphenyltetrazolium bromide) to a blue-colored product, formazan. The amount of formazan thus obtained is directly proportional to the amount of live cells present in the culture well(s). This amount of formazan is measured by spectrophotometry.
(§3) The cell lines are maintained as a monolayer culture at 37° C. in stoppered culture dishes containing MEM 25 MM HEPES (Minimum Essential Medium) base medium. This medium is suited to the growth of a range of various mammalian diploid or primary cells. This medium is then supplemented with:
(§4) an amount of 5% of FCS (Foetal Calf Serum) decomplemented at 56° C. for 1 hour,
(§5) 0.6 mg/ml of L-glutamine,
(§6) 200 μg/ml of streptomycin,
(§7) The 12 human cancer cell lines which were used were obtained from the American Type Culture Collection (ATCC, Rockville, Md., USA). These 12 cell lines are:
PC-3 (code ATCC: CRL-1435) which is a prostate cancer.
(§8) Experimentally: 100 μl of a cell suspension containing 20 000 to 50 000 (depending on the cell type used) cells/ml of culture medium are inoculated in 96-well flat-bottomed multi-well plates and are incubated at 37° C., under an atmosphere comprising 5% CO2 and 70% humidity. After incubation for 24 hours, the culture medium is replaced with 100 μl of fresh medium containing either the various test compounds at concentrations ranging from 10^−5 to 10^−10 M or the solvent used to dissolve the test products (control condition). After incubation for 72 hours under the above conditions, the culture medium is replaced with 100 μl of a yellowish solution of MTT dissolved at a rate of 1 mg/ml in RPMI 1640. The microplates are reincubated for 3 hours at 37° C. and are then centrifuged for 10 minutes at 400×g. The yellowish solution of MTT is removed and the blue formazan crystals formed in the cell are dissolved in 100 μl of DMSO. The microplates are then shaken for 5 minutes. The intensity of the resulting blue coloration, and thus of the conversion of the yellow product MTT into blue formazan by the cells that are still alive at the end of the experiment, is quantified by spectrophotometry using a Dynatech Immunoassay System machine at wavelengths of 570 nm and 630 nm corresponding, respectively, to the maximum absorption wavelengths of formazan and to the background noise. Software incorporated in the spectrophotometer calculates the average optical density values and the standard deviation (SD) and standard error of mean (SEM) values.
(§9) By way of example, the results of the average optical density, expressed as a percentage relative to the average optical density measured under the control condition (set equal to 100%), obtained at a concentration of 10^−5 M on the 12 abovementioned tumor cell lines are given in Table II.

[2] = tested on: colorectal line HT-29; assay: Clonogenic test (soft agar colony growth), HT-29; details: 21 days, control = 100%, mean ± SEM
Description: 1—Interaction (Stimulation or Inhibition of Proliferation) With the Generation of Clonogenic Cells (Clonogenic Test)
The test used is that described by Hamburger et al. (Science, 1977; 197, 461-463) and Salmon et al. (New England J. Med., 298, 1321-1327). A cell is considered clonogenic if it has the capacity to proliferate and to give rise to a cell colony. “Human tumor stem cells” are the cells which are the source of the neoplastic cells which constitute a given tumor. These tumor stem cells are responsible for the relapse processes which may be observed after surgical resection of primary tumors and are also responsible for the formation of metastases. In a tumor or a tumor cell line, these clonogenic stem cells differ from the other cells of the tumor or from the neoplastic cell line under consideration in that they conserve their capacity to proliferate in the absence of any solid support.
In this test, the tumor cells are cultured on a semi-solid support consisting of agar. […] In a tumor cell population, cultured on such a support, it is these clonogenic cells (associated with an unlimited number of cell divisions and whose proliferation is referred to by M. I. Dawson as “anchorage-independent [clonal] growth”) which are capable of growing. The percentage of these clonogenic cells in a tumor or a cell line ranges between 0.1% and 0.001%.
The influence of the compounds of formulae (I) and (Ia) on the growth of the cell colonies obtained by culturing, for example, the mammalian tumor lines MCF7 and MXT and the colorectal line HT-29 on the semi-liquid culture medium known as “soft agar” was measured. On such a medium, only the clonogenic cells referred to by M. I. Dawson as “anchorage-independent (clonal) cells” survive and grow. The growth of these cells in such a “non-adherent” mode bears witness to their degree of tumorigenicity. The inhibition of the growth of the size of a tumor in which a larger number of clonogenic cells has developed then becomes the evidence of reinforced cytotoxic activity.
Conversely, this test can also reveal that a compound is capable of inhibiting the generation/proliferation of clonogenic cells, thus making the tumor less able to grow and thus reducing the population of tumor cells.
The tumor cell lines studied are maintained in culture in 25 cm^2 falcon dishes. They are then trypsinized and the cells are fully dissociated from each other. The percentage of live cells is determined after staining with trypan blue. A cell suspension at a concentration of from 5·10^4 to 15·10^4 cells/ml (depending on the cell type under consideration) is prepared in a 0.3% agar solution. Next, 200 μl of this suspension are inoculated in Petri dishes 35 mm in diameter, in which are placed 3 ml of a base layer consisting of a 0.5% agar solution. The 200 μl of cell suspension are in turn covered with 1.8 ml of an upper layer consisting of a 0.3% agar solution. The dishes are then placed in an incubator at 37° C., 5% CO2 and 70% humidity until the treatment. This treatment is carried out about 1 to 2 hours after the inoculation. The test compounds are prepared at a concentration 100 times greater than the desired concentration and 50 μl of these treating solutions are placed over the upper layer of agar in the corresponding dishes. In the present study, the final concentration of the test products is 10^−5, 10^−7 and 10^−9 M. The dishes are then kept in an incubator for 21 days. On the 21st day the dishes are treated by depositing on the upper layer 100 μl of a 1 mg/ml solution of MTT (3-(4,5-dimethylthiazol-2-yl)-2,5-diphenyltetrazolinium bromide prepared with RPMI 1640 medium) for 3 h at 37° C. After this period, the cell colonies are fixed by adding 2 ml of formalin per dish. After fixing for 24 hours, the formalin is evaporated off and the number of stained cell colonies, thus consisting of metabolically active cells, and whose surface area is greater than 100 μm^2, is determined using an inverted microscope. […]

[3] = tested on: T24; assay: MTT test, T24; details: Homo sapiens, T-24, 10^−5 M, 72 hours, control = 100%, mean ± SEM, read-out: average optical density (MTT), percentage relative to control
Method: as §1, §2, §3, §4, §5, §6, §7
J82 (code ATCC: HTB-1) and T24 (code ATCC: HTB-4) which are two bladder cancers,
as §8, §9

Row | SMILES | viability at 10 µM [1] | average number of clones of clonogenic cells, percentage relative to control ([2]; 10^−5 M) | average number of clones of clonogenic cells, percentage relative to control ([2]; 10^−7 M) | average number of clones of clonogenic cells, percentage relative to control ([2]; 10^−9 M) | viability at 10 µM [3]
1 | COc1ccc(-c2cc3c(OC)cc(OC)cc3[nH]c2=O)cc1 [CRL8246, 5,7-Dimethoxy-3-(4-methoxyphenyl)-1,2-dihydro-2-quinolinone] | 122 ± 1.7% | 70.9 ± 2.8% | 103.3 ± 3.6% | 104 ± 2.7% | 109 ± 3.5%
2 | COc1ccc(-c2cc3c(OC)cc(OC)cc3n(CCC#N)c2=O)cc1 [CRL8247, 3-[5,7-Dimethoxy-3-(4-methoxyphenyl)-2-oxo-1,2-dihydro-1-quinolinyl]propanenitrile] | 70.5 ± 4.6% | 72.7 ± 3.6% | 98.3 ± 4.9% | 104.5 ± 2.7% | 77.8 ± 2.7%
3 | COc1ccc(-c2cc3c(OC)cc(OC)cc3n(CCc3nnn[nH]3)c2=O)cc1 [CRL8256, 1-[2-(1H-1,2,3,4-Tetrazol-5-yl)ethyl]-5,7-dimethoxy-3-(4-methoxyphenyl)-1,2-dihydro-2-quinolinone] | 86 ± 2.3% | 97.1 ± 4.3% | 100.5 ± 4.1% | 107.5 ± 3.7% | 78.2 ± 2.6%
4 | CCN(CC)C(=O)CCn1c(=O)c(-c2ccc(OC)cc2)cc2c(OC)cc(OC)cc21 [CRL8283, N,N-Diethyl-3-[5,7-dimethoxy-3-(4-methoxy-phenyl)-2-oxo-1,2-dihydro-1-quinolinyl]propanamide] | 92.4 ± 1.7% | 88.9 ± 0.2% | 90.9 ± 3.1% | 106.1 ± 1.4% | 72.9 ± 0.9%
5 | CCN(CC)C(=O)Cn1c(=O)c(-c2ccc(OC)cc2)cc2c(OC)cc(OC)cc21 [CRL8315, N,N-Diethyl-2-[5,7-dimethoxy-3-(4-methoxy-phenyl)-2-oxo-1,2-dihydro-1-quinolinyl]acetamide] | 93.6 ± 3% | 103.5 ± 4.5% | 111.9 ± 5.4% | 112.9 ± 2.4% | 89.6 ± 2.1%
6 | COc1ccc(-c2cc3c(OC)cc(OC)cc3n(CCN(C)C)c2=O)cc1 [CRL8316, 1-[2-(Dimethylamino)ethyl]-5,7-dimethoxy-3-(4-methoxyphenyl)-1,2-dihydro-2-quinolinone] | 84.8 ± 2.3% | 50.6 ± 1.8% | 80.1 ± 2.9% | 101.6 ± 3.2% | 94 ± 3.2%
